Results published in article PMC6833214, “Isolation of bioactive compounds from Bergenia ciliata (haw.) Sternb rhizome and their antioxidant and anticholinesterase activities” (BMC Complementary and Alternative Medicine, 2019).
Like-named read-outs stand apart in the source and are kept apart here.

Tests used:
[1] = DPPH free radical scavenging assay
Description: The free radical scavenging abilities of the extracts were determined using 2,2- Diphenyl-1-picrylhydrazyl (DPPH) assay modified by Brand-Williams et al. with some modification. In oxidized form of DPPH have deep violet color. On getting electrons from antioxidants the deep violet color changes to yellow color. DPPH solution was prepared by dissolving 20 mg in 100 ml methanol (stock solution). From this solution 3 ml were taken and its absorbance was adjusted to 0.75 at 515 nm (control solution). For the formation of free radical, the stock DPPH solution was covered with aluminum foil and kept in dark place for 24 h. For the preparation of stock solutions, 5 mg of each extracts were dissolved in 5 ml of methanol (5000 μg/5 ml). Different dilution (1000, 500, 250, 125 and 62.5 μg/ml) were prepared from stock solutions through serial dilution. About 2 ml from each dilution were mixed with 2 ml of DPPH solution and incubated for 15 min in darkness. The percentage inhibition of DPPH free radical by extracts was calculated using the following formula: 1 %inhibition=A−B/AX100
Where A is the absorbance of DPPH in oxidized state and B is the absorbance of mixture after 15 min of reaction. Ascorbic acid was used as standard antioxidant.

[2] = ABTS free radical scavenging assay
Description: These two solutions were mixed thoroughly and kept in dark overnight for the formation of free radical. About 3 ml were taken from this stock solution and its absorbance was adjusted to 0.76 at 745 nm (control solution). About 300 μl of test samples were mixed with 3 ml of ABTS solution and incubated for 15 min at 25 °C. The absorbance of the mixture was measured using a double beam spectrophotometer at 745 nm. The same procedure was followed for the preparation of different dilution of ascorbic acid (positive control). The data was recorded in triplicate and percent ABTS free radicals scavenging activities were calculated using Eq. 1.

[3] = molecular target: T1, acetyl cholinesterase from Electric eel (type-VI-S) (Electrophorus electricus, UniProt O42275); experiment: biochemical; conditions: isolated compounds, Table 6; for inhibition at 125 µg/mL: 125 μg/mL; for inhibition at 125 µg/mL / inhibition at 250 µg/mL / inhibition at 500 µg/mL / inhibition at 1000 µg/mL: read-out: AChE percent inhibition (mean ± S.E.M); for inhibition at 250 µg/mL: 250 μg/mL; for inhibition at 500 µg/mL: 500 μg/mL; for inhibition at 1000 µg/mL: 1000 μg/mL; for IC50: read-out: AChE IC50 (converted)
T1 construct: purchased Sigma-Aldrich USA type-VI-S

[4] = molecular target: T2, butyryl cholinesterase from equine (Equus caballus, UniProt P81908); experiment: Butyrylcholinesterase inhibition (Ellman's assay); type: biochemical; conditions: for inhibition at 125 µg/mL: 125 μg/mL; for inhibition at 1000 µg/mL: 1000 μg/mL
T2 construct: purchased Sigma-Aldrich USA
Description: Acetyl cholinesterase (AChE) and butyryl cholinesterase (BChE) were used to evaluate the enzyme inhibitory potential of Bergenia ciliata rhizome extracts and isolated compounds using Ellman’s assay [18]. The mentioned enzymes when act on their respective substrates acetylthiocholine iodide and butyrylthiocholine iodide hydrolyze them which then on complexation with 5-thio-2-nitrobenzoate anion formed from DTNB give yellow color. The color change is recorded after 15 min by spectrophotometer. Phosphate buffer (pH = 8) was prepared by mixing 1.36 g/100 mL, potassium dihydrogen phosphate and 1.74 g/100 mL di-potassium hydrogen phosphate (6 and 94% respectively). The AChE solution was prepared by dissolving 0.5 mg of enzyme in 0.5 ml of phosphate buffer to get 1000 unit/ml and BChE solution was also prepared by dissolving 1 mg in 1 ml of phosphate buffer to get 10 unit/ml. These two solutions were further diluted by phosphate buffer till a final concentration of 0.03 unit/ml and 0.1 unit/ml respectively. DTNB solution (0.0002 M) and ATChI and BTChI (0.0005 M) were prepared and kept in reagent bottles in refrigerator before use.
To each test tube, 100 μl of enzyme and DTNB solutions were added and incubated for 15 min at 25 °C. After this 100 μl substrates (AChEI, BChEI) were added to each test tube and allowed to stand for 15 min. The absorbance of mixtures were recorded at 412 nm. A negative control was prepared by mixing all the above mention components except plant extracts. […] For each sample absorption was recorded for 4 minutes. Percent activities of enzyme and percent inhibition were calculated using following relations. 2 V=∆Abs/∆T 3 %enzyme activity=V/Vmaxx100
Where V is the rate of reaction in the presence of inhibitor and Vmax is the rate of reaction without inhibitor.

[5] = 62.5 μg/mL, isolated compounds, Table 5
[6] = 125 μg/mL, isolated compounds, Table 5
[7] = 250 μg/mL, isolated compounds, Table 5
[8] = 500 μg/mL, isolated compounds, Table 5
[9] = 1000 μg/mL, isolated compounds, Table 5
[10] = isolated compounds, Table 6, read-out: BChE percent inhibition (mean ± S.E.M)
[11] = 250 μg/mL, isolated compounds, Table 6, read-out: BChE percent inhibition (mean ± S.E.M)
[12] = 500 μg/mL, isolated compounds, Table 6, read-out: BChE percent inhibition (mean ± S.E.M)
[13] = isolated compounds, Table 6, read-out: BChE IC50 (converted)

T2 sequence (P81908 whole entry): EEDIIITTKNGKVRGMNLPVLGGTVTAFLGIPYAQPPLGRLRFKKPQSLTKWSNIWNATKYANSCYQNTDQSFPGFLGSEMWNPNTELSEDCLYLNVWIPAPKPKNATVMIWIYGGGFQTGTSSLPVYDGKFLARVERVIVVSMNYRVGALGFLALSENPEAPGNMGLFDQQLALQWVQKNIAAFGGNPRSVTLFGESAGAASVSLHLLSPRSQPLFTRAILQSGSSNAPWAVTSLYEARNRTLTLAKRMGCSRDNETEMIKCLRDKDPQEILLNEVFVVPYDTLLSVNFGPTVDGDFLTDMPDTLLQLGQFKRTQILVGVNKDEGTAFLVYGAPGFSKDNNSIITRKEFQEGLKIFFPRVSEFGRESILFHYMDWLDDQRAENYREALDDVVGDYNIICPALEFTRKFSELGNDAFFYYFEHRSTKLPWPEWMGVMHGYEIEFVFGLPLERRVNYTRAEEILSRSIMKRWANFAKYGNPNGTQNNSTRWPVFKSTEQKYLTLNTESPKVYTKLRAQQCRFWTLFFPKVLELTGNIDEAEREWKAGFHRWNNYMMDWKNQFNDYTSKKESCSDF
T1 sequence (O42275 24-633): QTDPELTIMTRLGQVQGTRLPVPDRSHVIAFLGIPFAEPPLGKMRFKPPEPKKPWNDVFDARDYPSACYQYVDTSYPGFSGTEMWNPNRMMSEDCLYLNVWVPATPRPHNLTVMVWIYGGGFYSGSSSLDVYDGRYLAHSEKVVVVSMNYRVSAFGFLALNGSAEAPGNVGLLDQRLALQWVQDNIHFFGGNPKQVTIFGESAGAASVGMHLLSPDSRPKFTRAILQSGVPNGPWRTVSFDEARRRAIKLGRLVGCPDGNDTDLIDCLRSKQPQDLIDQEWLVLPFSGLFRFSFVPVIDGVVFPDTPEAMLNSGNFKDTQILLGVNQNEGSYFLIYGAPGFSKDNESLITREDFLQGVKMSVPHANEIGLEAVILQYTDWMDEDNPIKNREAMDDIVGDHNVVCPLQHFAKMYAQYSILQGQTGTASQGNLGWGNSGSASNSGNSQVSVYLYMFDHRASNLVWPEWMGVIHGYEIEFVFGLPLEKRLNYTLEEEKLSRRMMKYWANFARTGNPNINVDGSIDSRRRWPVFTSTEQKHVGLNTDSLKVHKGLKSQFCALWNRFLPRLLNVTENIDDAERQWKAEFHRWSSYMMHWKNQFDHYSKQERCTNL

## C[C@@H]1O[C@@H](OC[C@H]2O[C@@H](Oc3c(-c4ccc(O)c(O)c4)oc4cc(O)cc(O)c4c3=O)[C@H](O)[C@@H](O)[C@@H]2O)[C@H](O)[C@H](O)[C@H]1O [Rutin, 3,3,4,5,7-pentadroxyflavones-3-rutinoside]
[1]; [5]
  DPPH percent inhibition (mean ± S.E.M): 35.38 ± 2.28 %
[1]; [6]
  DPPH percent inhibition (mean ± S.E.M): 46.63 ± 1.17 %
[1]; [7]
  DPPH percent inhibition (mean ± S.E.M): 57.47 ± 0.93 %
[1]; [8]
  DPPH percent inhibition (mean ± S.E.M): 68.43 ± 1.40 %
[1]; [9]
  DPPH percent inhibition (mean ± S.E.M): 80.90 ± 1.27 %
[1]; isolated compounds, Table 5
  DPPH IC50: 150 µg/mL
[2]; [5]
  ABTS percent inhibition (mean ± S.E.M): 29.75 ± 2.18 %
[2]; [6]
  ABTS percent inhibition (mean ± S.E.M): 44.30 ± 0.79 %
[2]; [7]
  ABTS percent inhibition (mean ± S.E.M): 57.56 ± 1.42 %
[2]; [8]
  ABTS percent inhibition (mean ± S.E.M): 69.05 ± 0.64 %
[2]; [9]
  ABTS percent inhibition (mean ± S.E.M): 78.33 ± 0.63 %
[2]; isolated compounds, Table 5
  ABTS IC50: 183 µg/mL
[3]
  inhibition at 125 µg/mL: 48.1 ± 0.64%
  inhibition at 250 µg/mL: 60.2 ± 2.35%
  inhibition at 500 µg/mL: 66.72 ± 0.62%
  inhibition at 1000 µg/mL: 75.1 ± 1.41%
  IC50: 193 µM
[4]; [10]
  inhibition at 125 µg/mL: 45 ± 3.79%
  inhibition at 1000 µg/mL: 72 ± 0.86%
[4]; [11]
  inhibition at 250 µg/mL: 56.7 ± 0.7%
[4]; [12]
  inhibition at 500 µg/mL: 62.5 ± 1.72%
[4]; BChE IC50, isolated compounds, Table 6
  IC50: 282 µM

## COc1ccc2c3c1O[C@H]1C[C@@H](O)C=C[C@@]31CCN(C)C2 [Galanthamine, reference compound]
[4]; [10]
  inhibition at 125 µg/mL: 62.43 ± 0.39%
  inhibition at 1000 µg/mL: 92.26 ± 0.92%
[4]; [11]
  inhibition at 250 µg/mL: 71.8 ± 0.48%
[4]; 250 μg/ml, extracts, Table 3, read-out: Percent BChE (mean ± SEM) inhibition
  inhibition at 250 µg/mL: 76.72 ± 0.72%
[4]; [12]
  inhibition at 500 µg/mL: 86.51 ± 0.77%
[4]; 500 μg/ml, extracts, Table 3, read-out: Percent BChE (mean ± SEM) inhibition
  inhibition at 500 µg/mL: 84.7 ± 1.2%

## O=C1O[C@H]([C@@H](O)CO)C(O)=C1O [Ascorbic acid, reference compound]
[1]; 62.5 μg/mL, extracts, Table 2
  DPPH percent inhibition (mean ± S.E.M): 52.88 ± 0.32%
[1]; [5]
  DPPH percent inhibition (mean ± S.E.M): 53.78 ± 0.76%
[1]; 125 μg/mL, extracts, Table 2
  DPPH percent inhibition (mean ± S.E.M): 62.90 ± 0.48%
[1]; [6]
  DPPH percent inhibition (mean ± S.E.M): 62.90 ± 0.85%
[1]; 250 μg/mL, extracts, Table 2
  DPPH percent inhibition (mean ± S.E.M): 71.93 ± 0.45%
[1]; [7]
  DPPH percent inhibition (mean ± S.E.M): 71.34 ± 2.16%
[1]; 500 μg/mL, extracts, Table 2
  DPPH percent inhibition (mean ± S.E.M): 80.29 ± 0.79%
[1]; [8]
  DPPH percent inhibition (mean ± S.E.M): 80.45 ± 0.96%
[1]; 1000 μg/mL, extracts, Table 2
  DPPH percent inhibition (mean ± S.E.M): 92.94 ± 0.86%
[1]; [9]
  DPPH percent inhibition (mean ± S.E.M): 92.67 ± 0.73%
[1]; extracts, Table 2
  DPPH IC50: 50 µg/mL
[1]; isolated compounds, Table 5
  DPPH IC50: 50 µg/mL
[2]; 62.5 μg/mL, extracts, Table 2
  ABTS percent inhibition (mean ± S.E.M): 49.78 ± 0.76%
[2]; [5]
  ABTS percent inhibition (mean ± S.E.M): 50.88 ± 0.32%
[2]; 125 μg/mL, extracts, Table 2
  ABTS percent inhibition (mean ± S.E.M): 58.90 ± 0.85%
[2]; [6]
  ABTS percent inhibition (mean ± S.E.M): 58.90 ± 0.48%
[2]; 250 μg/mL, extracts, Table 2
  ABTS percent inhibition (mean ± S.E.M): 68.34 ± 2.16%
[2]; [7]
  ABTS percent inhibition (mean ± S.E.M): 68.93 ± 0.45%
[2]; 500 μg/mL, extracts, Table 2
  ABTS percent inhibition (mean ± S.E.M): 80.45 ± 0.96%
[2]; [8]
  ABTS percent inhibition (mean ± S.E.M): 80.29 ± 0.79%
[2]; 1000 μg/mL, extracts, Table 2
  ABTS percent inhibition (mean ± S.E.M): 89.67 ± 0.73%
[2]; [9]
  ABTS percent inhibition (mean ± S.E.M): 89.94 ± 0.86%
[2]; extracts, Table 2
  ABTS IC50: 64 µg/mL
[2]; isolated compounds, Table 5
  ABTS IC50: 62 µg/mL

## Oc1cccc(O)c1O [Pyrogallol, Benzene-1,2,3-triol]
[1]; [5]
  DPPH percent inhibition (mean ± S.E.M): 48.72 ± 0.89 ^ns %
[1]; [6]
  DPPH percent inhibition (mean ± S.E.M): 59.93 ± 2.18 ^ns %
[1]; [7]
  DPPH percent inhibition (mean ± S.E.M): 70.30 ± 1.05 ^ns %
[1]; [8]
  DPPH percent inhibition (mean ± S.E.M): 81.64 ± 1.33 ^ns %
[1]; [9]
  DPPH percent inhibition (mean ± S.E.M): 89.35 ± 0.92 ^ns %
[1]; isolated compounds, Table 5
  DPPH IC50: 68 µg/mL
[2]; [5]
  ABTS percent inhibition (mean ± S.E.M): 39.60 ± 1.39 %
[2]; [6]
  ABTS percent inhibition (mean ± S.E.M): 53.26 ± 1.62 %
[2]; [7]
  ABTS percent inhibition (mean ± S.E.M): 66.42 ± 0.90 ^ns %
[2]; [8]
  ABTS percent inhibition (mean ± S.E.M): 77.81 ± 1.09 ^ns %
[2]; [9]
  ABTS percent inhibition (mean ± S.E.M): 87.02 ± 0.81 ^ns %
[2]; isolated compounds, Table 5
  ABTS IC50: 85 µg/mL
[3]
  inhibition at 125 µg/mL: 66.2 ± 2.14%
  inhibition at 250 µg/mL: 80.12 ± 0.62%
  inhibition at 500 µg/mL: 87.4 ± 1.51%
  inhibition at 1000 µg/mL: 94.35 ± 0.72%
  IC50: 222 µM
[4]; [10]
  inhibition at 125 µg/mL: 58.3 ± 0.93%
  inhibition at 1000 µg/mL: 92 ± 1.89%
[4]; [11]
  inhibition at 250 µg/mL: 71.2 ± 1.38%
[4]; [12]
  inhibition at 500 µg/mL: 80.35 ± 0.3%
[4]; [13]
  IC50: 555 µM

## O=c1c(O)c(-c2ccc(O)cc2O)oc2cc(O)cc(O)c12 [Morin, 2-(2,4-Dihydroxyphenyl)-3,5,7-trihydroxychromen-4-one]
[1]; [5]
  DPPH percent inhibition (mean ± S.E.M): 40.85 ± 0.94 %
[1]; [6]
  DPPH percent inhibition (mean ± S.E.M): 48.72 ± 1.11 ^ns %
[1]; [7]
  DPPH percent inhibition (mean ± S.E.M): 60.25 ± 2.28 %
[1]; [8]
  DPPH percent inhibition (mean ± S.E.M): 72.72 ± 1.56 %
[1]; [9]
  DPPH percent inhibition (mean ± S.E.M): 83.93 ± 0.72 %
[1]; isolated compounds, Table 5
  DPPH IC50: 105 µg/mL
[2]; [5]
  ABTS percent inhibition (mean ± S.E.M): 30.50 ± 1.43 %
[2]; [6]
  ABTS percent inhibition (mean ± S.E.M): 44.15 ± 0.56 %
[2]; [7]
  ABTS percent inhibition (mean ± S.E.M): 58.04 ± 2.44 %
[2]; [8]
  ABTS percent inhibition (mean ± S.E.M): 70.67 ± 1.02 %
[2]; [9]
  ABTS percent inhibition (mean ± S.E.M): 80.86 ± 1.09 %
[2]; isolated compounds, Table 5
  ABTS IC50: 145 µg/mL
[3]
  inhibition at 125 µg/mL: 56.3 ± 1.45%
  inhibition at 250 µg/mL: 68.8 ± 0.8%
  inhibition at 500 µg/mL: 77.2 ± 0.91%
  inhibition at 1000 µg/mL: 85.5 ± 3.19%
  IC50: 212 µM
[4]; [10]
  inhibition at 125 µg/mL: 51.1 ± 0.56%
  inhibition at 1000 µg/mL: 80.46 ± 0.76%
[4]; [11]
  inhibition at 250 µg/mL: 60.51 ± 0.5%
[4]; [12]
  inhibition at 500 µg/mL: 68.4 ± 2.22%
[4]; [13]
  IC50: 384 µM
